Here are results for 29 compounds from patent US20230002372A1, “AZAINDOLE CARBOXAMIDE COMPOUNDS FOR THE TREATMENT OF MYCOBACTERIAL INFECTIONS” (THE GLOBAL ALLIANCE FOR TB DRUG DEVELOPMENT, INC., priority 2019, published 2023).

By MIC is commonly meant the lowest concentration that inhibits growth of the organism.

Structures are written as SMILES. ≈ marks a conversion by molar mass, not a printed value.

In this assay the test system is M tb H37Rv. Nature of the assay: MIC determination against M tb H37Rv (green fluorescent protein reporter assay; MIC-MABA). To be noted: Mycobacterium tuberculosis, H37RV, 240 h, read-out: M. TB H37Rv: MIC-MABA: MIC, M. tb H37Rv; 7H9 broth; 10 days exposure; MIC = lowest concentration inhibiting fluorescence by 90%. It is filed as cell-based, Mycobacterium tuberculosis. A general note: In a reporter assay the amount or activity of a reporter protein is the signal.
In the case of `C[Si]1(C)CCC(NC(=O)c2cc3ccc(-c4ccccc4)nc3[nH]2)CC1` [MPL-388, N-(1,1-dimethylsilinan-4-yl)-6-phenyl-1H-pyrrolo[2,3-b]pyridine-2-carboxamide], the MIC came to 0.012 µg/mL (≈ 0.033 µM).

Turning to `COc1ncc2[nH]c(C(=O)NC3CC[Si](C)(C)CC3)cc2c1C(F)(F)F` [MPL-452, N-(1,1-dimethylsilinan-4-yl)-5-methoxy-4-(trifluoromethyl)-1H-pyrrolo[2,3-c]pyridine-2-carboxamide], the MIC is 0.118 µg/mL (≈ 0.306 µM).

Turning to `C[Si]1(C)CCC(NC(=O)c2cc3cc(-c4cccnc4)cnc3[nH]2)CC1` [MPL-392, N-(1,1-dimethylsilinan-4-yl)-5-(3-pyridyl)-1H-pyrrolo[2,3-b]pyridine-2-carboxamide], the MIC is 0.464 µg/mL (≈ 1.27 µM).

With `CC1(C)CCC(NC(=O)c2cc3c(F)cncc3[nH]2)CC1` [MPL-094, N-(4,4-dimethylcyclohexyl)-4-fluoro-1H-pyrrolo[2,3-c]pyridine-2-carboxamide], the MIC was found to be 0.049 µg/mL (≈ 0.169 µM).

In the case of `O=C(NC1CCC2(CCC2)CC1)c1cc2c(Cl)ccnc2[nH]1` [MPL-001, 4-chloro-N-spiro[3.5]nonan-7-yl-1H-pyrrolo[2,3-b]pyridine-2-carboxamide], the MIC stood at 0.03 µg/mL (≈ 0.0944 µM).

Take `O=C(NC1CC[Si]2(CCCCC2)CC1)c1cc2cc(-c3ccccc3F)cnc2[nH]1` [MPL-434, 5-(2-fluorophenyl)-N-(6-silaspiro[5.5]undecan-3-yl)-1H-pyrrolo[2,3-b]pyridine-2-carboxamide]: the MIC came out at 0.061 µg/mL (≈ 0.145 µM).

As to `O=C(NC1CCCCCCC1)c1cc2c(C(F)(F)F)ccnc2[nH]1` [MPL-037, N-cyclooctyl-4-(trifluoromethyl)-1H-pyrrolo[2,3-b]pyridine-2-carboxamide], the MIC was 0.014 µg/mL (≈ 0.0413 µM).

Consider `COc1ccc2cc(C(=O)NC3CC[Si]4(CCCC4)CC3)[nH]c2n1` [MPL-454, 6-methoxy-N-(5-silaspiro[4.5]decan-8-yl)-1H-pyrrolo[2,3-b]pyridine-2-carboxamide], for which the MIC worked out at 0.458 µg/mL (≈ 1.33 µM).

Consider `CC(C)Oc1cncc2[nH]c(C(=O)NC3CC[Si](C)(C)CC3)cc12` [MPL-382, N-(1,1-dimethylsilinan-4-yl)-4-isopropoxy-1H-pyrrolo[2,3-c]pyridine-2-carboxamide], for which the MIC amounted to 0.368 µg/mL (≈ 1.07 µM).

`Cc1ncc2[nH]c(C(=O)N[C@H]3C[C@H]4C[C@@H]([C@@H]3C)C4(C)C)cc2c1F` [MPL-140, 4-fluoro-5-methyl-N-[(1S,2S,3S,5R)-2,6,6-trimethylnorpinan-3-yl]-1H-pyrrolo[2,3-c]pyridine-2-carboxamide]: the MIC was determined as 1.3 µg/mL (≈ 3.95 µM).

For the compound `CC1(C)[C@H]2C[C@H](NC(=O)c3cc4c(F)cncc4[nH]3)[C@](C)(O)[C@@H]1C2` [MPL-221, 4-fluoro-N-[(1R,2R,3S,5R)-2-hydroxy-2,6,6-trimethyl-norpinan-3-yl]-1H-pyrrolo[2,3-c]pyridine-2-carboxamide], the MIC came out at 0.2 µg/mL (≈ 0.604 µM).

For the compound `C[C@@H]1[C@@H](NC(=O)c2cc3c(F)cncc3[nH]2)C[C@H]2C[C@@H]1C2(C)C` [MPL-092, 4-fluoro-N-[(1S,2S,3S,5R)-2,6,6-trimethylnorpinan-3-yl]-1H-pyrrolo[2,3-c]pyridine-2-carboxamide], the MIC was 1.2 µg/mL (≈ 3.8 µM).

Turning to `COc1ccc2cc(C(=O)NC3CC[Si]4(CCCCC4)CC3)[nH]c2n1` [MPL-455, 6-methoxy-N-(6-silaspiro[5.5]undecan-3-yl)-1H-pyrrolo[2,3-b]pyridine-2-carboxamide], the MIC was 0.121 µg/mL (≈ 0.338 µM).

Take `Cc1nc2[nH]c(C(=O)N[C@@H]3CCC[Si](C)(C)CC3)cc2c(F)c1F` (single isomer, unassigned) [MPL-282A]: the MIC worked out at 0.051 µg/mL (≈ 0.145 µM).

As to `CC1(C)CCC(NC(=O)c2cc3c(C4CC4)ccnc3[nH]2)CC1` [MPL-017, 4-cyclopropyl-N-(4,4-dimethylcyclohexyl)-1H-pyrrolo[2,3-b]pyridine-2-carboxamide], the MIC was 0.72 µg/mL (≈ 2.31 µM).

On to `Cc1cc(C)c2cc(C(=O)NC3CCCCCCC3)[nH]c2n1` [MPL-041, N-cyclooctyl-4,6-dimethyl-1H-pyrrolo[2,3-b]pyridine-2-carboxamide], for which the MIC is 8.5 µg/mL (≈ 28.4 µM).

In the case of `COc1ccnc2[nH]c(C(=O)NC3CCCCCCC3)cc12` [MPL-038, N-cyclooctyl-4-methoxy-1H-pyrrolo[2,3-b]pyridine-2-carboxamide], the MIC is 6.2 µg/mL (≈ 20.6 µM).

Consider `Cc1nc2[nH]c(C(=O)NC3CCC(C)(C)CC3)cc2c(F)c1Cl` [MPL-069, 5-chloro-N-(4,4-dimethylcyclohexyl)-4-fluoro-6-methyl-1H-pyrrolo[2,3-b]pyridine-2-carboxamide], for which the MIC was 0.0099 µg/mL (≈ 0.0293 µM).

Take `CC1(C)C2CCC1(C)C(NC(=O)c1cc3c(F)ccnc3[nH]1)C2` (centres unmarked) [MPL-106, 4-fluoro-N-(1,7,7-trimethylnorbornan-2-yl)-1H-pyrrolo[2,3-b]pyridine-2-carboxamide]: the MIC was 0.16 µg/mL (≈ 0.507 µM).

With `Cc1cc(Cl)c2cc(C(=O)N[C@H]3CC[Si](C)(C)C3)[nH]c2n1` (single isomer, unassigned) [MPL-401B], the MIC was determined as 0.007 µg/mL (≈ 0.0217 µM).

`O=C(NC1CC[Si]2(CCCCC2)CC1)c1cc2c(F)c(Cl)ncc2[nH]1` [MPL-348, 5-chloro-4-fluoro-N-(6-silaspiro[5.5]undecan-3-yl)-1H-pyrrolo[2,3-c]pyridine-2-carboxamide]: the MIC is 0.435 µg/mL (≈ 1.14 µM).

With `Cc1nc2[nH]c(C(=O)NC3CC[Si]4(CCCC4)CC3)cc2c(F)c1F` [MPL-284, 4,5-difluoro-6-methyl-N-(5-silaspiro[4.5]decan-8-yl)-1H-pyrrolo[2,3-b]pyridine-2-carboxamide], the MIC amounted to 0.026 µg/mL (≈ 0.0715 µM).

In the case of `CC1(C)C2CCC1(C)C(NC(=O)c1cc3c(C(F)(F)F)ccnc3[nH]1)C2` (centres unmarked) [MPL-108, 4-(trifluoromethyl)-N-(1,7,7-trimethylnorbornan-2-yl)-1H-pyrrolo[2,3-b]pyridine-2-carboxamide], the MIC came to 0.02 µg/mL (≈ 0.0547 µM).

As to `Cc1nc2[nH]c(C(=O)NC3CC[Si]4(CCCCC4)CC3)cc2c(F)c1F` [MPL-285, 4,5-difluoro-6-methyl-N-(6-silaspiro[5.5]undecan-3-yl)-1H-pyrrolo[2,3-b]pyridine-2-carboxamide], the MIC was found to be 0.016 µg/mL (≈ 0.0424 µM).

With `O=C(NC1CC2CCC(C2)C1)c1cc2c(Cl)cncc2[nH]1` (centres unmarked) [MPL-166, N-(3-bicyclo[3.2.1]octanyl)-4-chloro-1H-pyrrolo[2,3-c]pyridine-2-carboxamide], the MIC is 0.39 µg/mL (≈ 1.28 µM).

Regarding `O=C(NC1CC[Si]2(CCCCC2)CC1)c1cc2c(F)cncc2[nH]1` [MPL-259, 4-fluoro-N-(6-silaspiro[5.5]undecan-3-yl)-1H-pyrrolo[2,3-c]pyridine-2-carboxamide], the MIC came to 0.054 µg/mL (≈ 0.156 µM).

In the case of `Cc1ncc2[nH]c(C(=O)NC3CC[Si]4(CCCC4)CC3)cc2c1F` [MPL-319, 4-fluoro-5-methyl-N-(5-silaspiro[4.5]decan-8-yl)-1H-pyrrolo[2,3-c]pyridine-2-carboxamide], the MIC amounted to 0.499 µg/mL (≈ 1.44 µM).

Regarding `C[C@@H]1[C@@H](NC(=O)c2cc3c(F)c(F)cnc3[nH]2)C[C@H]2C[C@@H]1C2(C)C` [MPL-062, 4,5-difluoro-N-[(1S,2S,3S,5R)-2,6,6-trimethylnorpinan-3-yl]-1H-pyrrolo[2,3-b]pyridine-2-carboxamide], the MIC is 0.19 µg/mL (≈ 0.57 µM).

Consider `COc1c(C(F)(F)F)ncc2[nH]c(C(=O)NC3CC[Si](C)(C)CC3)cc12` [MPL-379, N-(1,1-dimethylsilinan-4-yl)-4-methoxy-5-(trifluoromethyl)-1H-pyrrolo[2,3-c]pyridine-2-carboxamide], for which the MIC was 0.332 µg/mL (≈ 0.861 µM).
